What was measured:
[1] = tested on: A549 cells; experiment: Uptake of labeled EPNVs by A549 cells; format: cell-based, human; settings: 37° C.; sodium azide 50 mM, 3 and 6 hour
Procedure: For uptake experiments, tumor cells were grown in 12-well plates with Eagle's minimal essential medium (EMEM) in the presence of 10% fetal bovine serum (FBS) for 24 h. […] After washing with cold PBS 5×, cells were trypsinized with 0.25% Trypsin-EDTA (Invitrogen, Carlsbad, CA) and washed an additional two time. Finally, the cells were resuspended in flow cytometry buffer and analyzed by flow cytometry (BD Accuri™ C6 Cytometer, New Jersey USA) and FlowJo Version 7.6 software (TreeStar Inc). The data presented were based on the mean fluorescence signal for 50,000 cells collected. All assays were performed in triplicate. […]
The cultured cells were then washed with PBS 3×. The percentages of PKH26^+ cells were quantified by FACS analysis (BD Accuri™ Flow Cytometer) and FlowJo Version 7.6 software (TreeStar Inc.).
After washing 3×, PKH26+ cells was analyzed using FACS.
After washing 3× with PBS (pH7.4), PKH26^+ cells were determined by FACS analysis as previously described. Cells exposed to the vehicle (PBS; pH 7.4), served as a control for intrinsic fluorescence, both in the presence and the absence of 50 mM sodium azide. The data were analyzed by FACS (BD Accuri™ Flow Cytometer) and FlowJo Version 7.6 software (TreeStar Inc). […]

[2] = tested on: CT26, SW620 and 4T1 tumors; experiment: EPNV mediated targeting and therapy, statements for all three tumor models; settings: mouse
Procedure: In the first set experiments, six-week-old female BALB/c-SCID mice (Jackson Lab) were injected subcutaneously with the human colon cancer SW620 cell line (5.0×10^6 cells/mouse in 50 μl of PBS). In the second set of experiments, six-week-old female BALB/c mice (Jackson Lab) were injected subcutaneously with murine colon cancer CT26 cell line (1.0×10^6 cells/mouse in 50 μl of PBS). In the third set of experiments, six-week-old female BALB/c mice (Jackson Lab) were injected at a mammary fat pad with the murine breast tumor 4T1cell line (1.0×10^6 cells/mouse in 50 μl of PBS). […] Growth of the tumors was measured.

[3] = Liver enzymes (ALT, GST) after oral treatment; format: in vivo, mice; settings: last day of treatment
Description: At least ten mice were included per group.
Arthritis was induced using a standard protocol.

[4] = tested on: LPS induced septic shock; experiment: LPS mouse septic shock model; format: in vivo, C57BL/6 mice; settings: amount equal to that in GELP-Cur; PBS 9/10
Description: PBS and GELPs alone (equal to the amount in GELPs-Cur) were used as controls. Mouse mortality was monitored over a period of 4 days.
Using an identical treatment protocol as described above, GELP-Cur-treatment led to 100% protection of C57BL/6 mice (10 mice/group) against LPS induced sepsis in a murine model.

[5] = tested on: colitis-associated cancer (CAC); experiment: AOM/DSS colitis-associated colon cancer model; format: in vivo, mice; settings: gavaged at 4 mg/kg every other day for 3 weeks
Procedure: Colitis-associated colorectal cancer (CAC) was induced as described below. Six to seven week old female mice were injected intraperitoneally (IP) with 12.5 mg/kg azoxymethane (AOM; Sigma-Aldrich Chemical Co, St. Louis, MO). Beginning on the same day, mice were provided […] dextran sulfate sodium (DSS; MP Biomedicals, Solon, OH, molecular weight 35,000-50,000 […]) water for 7 days followed by 14 days of untreated drinking water. Mice were subjected to two more DSS water—untreated drinking water cycles followed by untreated water for 28 days. […] At the termination of the study, mice were sacrificed by CO2 asphyxiation and all organs were carefully inspected for macroscopic pathological lesions. The intestines, liver, and spleen were removed, and fixed in 10% buffered formalin for a minimum of 24 h. The colon was excised, flushed with saline, the length measured, cut open longitudinally, flattened on filter paper and washed with saline. Macroscopic inspection of the colons was carefully carried out, with the number, size and location of visible tumors recorded.
Mice received a single injection of azoxymethane (AOM, 10 mg/kg body weight), followed by administration of three cycles of dextran sulfate sodium (DSS, 2% in water) as outlined in FIG. 4.

| Compound | effect of inhibitor on uptake of PKH26-EPNV by A549 cells [1] | also measured |
| --- | --- | --- |
| COc1ccc2c(c1)c(CC(=O)O)c(C)n2C(=O)c1ccc(Cl)cc1 [indomethacin] | did not affect |  |
| COC(=O)Nc1nc2ccc(C(=O)c3cccs3)cc2[nH]1 [nocodazole] | greatly diminished |  |
| N=C(N)NC(=O)c1nc(Cl)c(N)nc1N [Amiloride] | did not affect |  |
| C=C1[C@@H](C)[C@H]2[C@H](Cc3ccccc3)NC(=O)[C@]23[C@H](OC(C)=O)/C=C/[C@@](C)(O)C(=O)[C@@H](C)C/C=C/[C@H]3[C@@H]1O [cytochalasin D] | greatly diminished |  |
| CN(C)CCCN1c2ccccc2Sc2ccc(Cl)cc21 [chlorpromazine] | greatly diminished |  |
| CC(=O)O[C@H]1C(=O)[C@@]2(C)[C@H]([C@H](OC(=O)c3ccccc3)[C@]3(O)C[C@H](OC(=O)[C@H](O)[C@@H](NC(=O)c4ccccc4)c4ccccc4)C(C)=C1C3(C)C)[C@]1(OC(C)=O)CO[C@@H]1C[C@@H]2O [PTX, paclitaxel] |  | in vivo biodistribution in sacrificed tumor bearing mice [2]: mainly targeted liver and spleen |
| CO/C1=C\C(C)=C\[C@@H](C)[C@@H](O)[C@@H](C)C/C(C)=C/C=C/[C@H](OC)[C@@H]([C@@H](C)[C@@H](O)[C@H](C)[C@@]2(O)C[C@@H](O)[C@H](C)[C@@H](C(C)C)O2)OC1=O [bafilomycin A1] | markedly inhibited |  |
| COc1cc(/C=C/C(=O)CC(=O)/C=C/c2ccc(O)c(OC)c2)ccc1O [free curcumin, curcumin] |  | liver enzyme ALT versus PBS group ([3]; ALT (36±8.1 U/I)): not significantly different; liver enzyme GST versus PBS group ([3]; GST (25±5.2)): not significantly different; mice died [4]: 8/10; average tumor number per mouse [5]: 8.5 |

— patent publication US11890382B2, “Edible plant-derived microvesicle compositions for diagnosis and treatment of disease” (University of Louisville Research Foundation, Inc., priority 2011, dated 2024)
